Earlier results on one compound are cited in patent US12036329B2, “Mucoadhesive dispersion nanoparticle system and method for production the same” (LEAD BIOTHERAPEUTICS LTD, priority 2018, dated 2024).

The test system of the data set is alpha-adrenergic receptor. The settings on record: generally accepted.

`Cc1cc(C(C)(C)C)cc(C)c1CC1=NCCN1` [xylometazoline]: the Duration of effect was 5 to 6 h.
